Reference: ChEMBL document CHEMBL3885861, “Open TG-GATES”

Species on record: Rattus norvegicus
Experiment: Open TG-GATES - Regimen: Daily Repeat
Format: toxicity, organism-based, Sprague-Dawley
Set-up: regimen Daily Repeat, gender Male, age 6 weeks
Conditions: in vivo, po, route gavage; for APTT / Bas / Eos / Fbg / Hb / Ht / Lym / MCH / MCHC / MCV / Mono / PT / Plat / RBC / Ret / WBC: tissue Blood; for KIDNEY_L / KIDNEY_R / KIDNEY_TOTAL: tissue Kidney; for ALP / ALT / AST / BUN / CRE / Ca / DBIL / GLC / IP / K / LDH / Na / PL / RALB / TBIL / TC / TG / TP / gamma-GTP: tissue Plasma
[1] = 0 mg/kg, 72 h, dose level Control, time 3 day
[2] = 0 mg/kg, […], dose level Control, time 7 day
[3] = 0 mg/kg, […], dose level Control, time 14 day
[4] = 0 mg/kg, […], dose level Control, time 28 day
[5] = 20 mg/kg, 72 h, dose level Low, time 3 day
[6] = 20 mg/kg, […], dose level Low, time 7 day
[7] = 20 mg/kg, […], dose level Low, time 14 day
[8] = 20 mg/kg, […], dose level Low, time 28 day
[9] = 60 mg/kg, 72 h, dose level Middle, time 3 day

**Q.** Which results are given for `CC(C)Cc1ccc(C(C)C(=O)O)cc1` (centres undefined) [IBUPROFEN]?
**A.** TERMINAL_BW [1]: 222.9 g; APTT [1]: 20.4 s; Bas [1]: 0%; Eos [1]: 1%; Fbg [1]: 283.4 mg/dL; Hb [1]: 13.2 g/dL; Ht [1]: 38.4%; Lym [1]: 79.8%; MCH [1]: 22.3 pg; MCHC [1]: 34.5%; MCV [1]: 64.7 fL; Mono [1]: 2.8%; PT [1]: 15.5 s; Plat [1]: 111.7 x10_4/uL; RBC [1]: 593 x10_4/ul; Ret [1]: 6.7%; WBC [1]: 110.2 x10_2/uL; KIDNEY_L [1]: 0.9 g; KIDNEY_R [1]: 1 g; KIDNEY_TOTAL [1]: 1.9 g; ALP [1]: 1697.6 IU/L; ALT [1]: 44.8 IU/L; AST [1]: 76.6 IU/L; BUN [1]: 17.2 mg/dL; CRE [1]: 0.2 mg/dL; Ca [1]: 11 mg/dL; DBIL [1]: 0 mg/dL; GLC [1]: 200 mg/dL; IP [1]: 7.7 mg/dL; K [1]: 4.1 meq/L; LDH [1]: 208 IU/L; Na [1]: 141.4 meq/L; PL [1]: 143.6 mg/dL; RALB [1]: 3 g/dL; TBIL [1]: 0.006 mg/dL; TC [1]: 77 mg/dL; TG [1]: 84 mg/dL; TP [1]: 5.5 g/dL; gamma-GTP [1]: 1.2 IU/L; TERMINAL_BW [2]: 270 g; TERMINAL_BW [3]: 304.6 g; TERMINAL_BW [4]: 398.5 g; APTT [2]: 21.5 s; Bas [2]: 0%; Eos [2]: 0.8%; Fbg [2]: 292.8 mg/dL; Hb [2]: 13.1 g/dL; Ht [2]: 37.3%; Lym [2]: 80%; MCH [2]: 21.6 pg; MCHC [2]: 35%; MCV [2]: 61.7 fL; Mono [2]: 2.4%; PT [2]: 16.1 s; Plat [2]: 123.8 x10_4/uL; RBC [2]: 604.6 x10_4/ul; Ret [2]: 6.7%; WBC [2]: 126 x10_2/uL; Bas [3]: 0%; Eos [3]: 0.6%; Fbg [3]: 355.2 mg/dL; Ht [3]: 41.1%; Lym [3]: 83.8%; MCHC [3]: 34.7%; MCV [3]: 59.9 fL; Mono [3]: 2%; PT [3]: 16 s; Plat [3]: 115.8 x10_4/uL; RBC [3]: 686.2 x10_4/ul; Ret [3]: 4.9%; WBC [3]: 104.5 x10_2/uL; APTT [4]: 21.9 s; Bas [4]: 0%; Eos [4]: 1.2%; Fbg [4]: 340.2 mg/dL; Hb [4]: 14.8 g/dL; Ht [4]: 43%; Lym [4]: 84.4%; MCH [4]: 19.2 pg; MCHC [4]: 34.4%; MCV [4]: 55.9 fL; Mono [4]: 2.2%; PT [4]: 16.9 s; RBC [4]: 768.2 x10_4/ul; Ret [4]: 2.7%; KIDNEY_L [2]: 1.1 g; KIDNEY_R [2]: 1.2 g; KIDNEY_TOTAL [2]: 2.3 g; KIDNEY_L [3]: 1.2 g; KIDNEY_R [3]: 1.2 g; KIDNEY_TOTAL [3]: 2.4 g; KIDNEY_L [4]: 1.3 g; KIDNEY_R [4]: 1.4 g; KIDNEY_TOTAL [4]: 2.7 g; ALP [2]: 1943 IU/L; ALT [2]: 46.8 IU/L; AST [2]: 76.6 IU/L; BUN [2]: 18.6 mg/dL; CRE [2]: 0.2 mg/dL; DBIL [2]: 0 mg/dL; GLC [2]: 179.2 mg/dL; IP [2]: 7.6 mg/dL; K [2]: 4.2 meq/L; LDH [2]: 170.2 IU/L; Na [2]: 138.6 meq/L; PL [2]: 136.2 mg/dL; RALB [2]: 3.1 g/dL; TBIL [2]: 0.004 mg/dL; TC [2]: 71.2 mg/dL; TG [2]: 100.8 mg/dL; TP [2]: 5.5 g/dL; gamma-GTP [2]: 2.6 IU/L; ALP [3]: 1425.2 IU/L; ALT [3]: 37.4 IU/L; AST [3]: 65.8 IU/L; BUN [3]: 19.2 mg/dL; CRE [3]: 0.2 mg/dL; DBIL [3]: 0 mg/dL; GLC [3]: 200.4 mg/dL; IP [3]: 7.7 mg/dL; K [3]: 4.1 meq/L; LDH [3]: 118.4 IU/L; Na [3]: 140.6 meq/L; PL [3]: 149 mg/dL; RALB [3]: 3 g/dL; TBIL [3]: 0.012 mg/dL; TC [3]: 73.4 mg/dL; TP [3]: 5.8 g/dL; gamma-GTP [3]: 2.2 IU/L; ALP [4]: 1191 IU/L; ALT [4]: 35.2 IU/L; AST [4]: 66.2 IU/L; CRE [4]: 0.2 mg/dL; DBIL [4]: 0 mg/dL; GLC [4]: 196 mg/dL; IP [4]: 6.3 mg/dL; K [4]: 4.1 meq/L; LDH [4]: 170.6 IU/L; Na [4]: 140.8 meq/L; PL [4]: 144.6 mg/dL; RALB [4]: 3.2 g/dL; TBIL [4]: 0.002 mg/dL; TC [4]: 66.6 mg/dL; TG [4]: 143.8 mg/dL; TP [4]: 6.1 g/dL; gamma-GTP [4]: 3 IU/L; TERMINAL_BW [5]: 230.1 g; APTT [5]: 21.4 s; Bas [5]: 0%; Eos [5]: 0.6%; Fbg [5]: 301 mg/dL; Hb [5]: 13.6 g/dL; Ht [5]: 39.5%; Lym [5]: 75.8%; MCH [5]: 22 pg; MCHC [5]: 34.3%; MCV [5]: 64 fL; Mono [5]: 3%; PT [5]: 15.5 s; Plat [5]: 120.5 x10_4/uL; RBC [5]: 617.6 x10_4/ul; Ret [5]: 6.7%; WBC [5]: 117.5 x10_2/uL; KIDNEY_L [5]: 1 g; KIDNEY_R [5]: 1 g; KIDNEY_TOTAL [5]: 2 g; ALP [5]: 1847.8 IU/L; ALT [5]: 42.8 IU/L; AST [5]: 75 IU/L; BUN [5]: 17.8 mg/dL; CRE [5]: 0.2 mg/dL; Ca [5]: 11 mg/dL; DBIL [5]: 0 mg/dL; GLC [5]: 182.8 mg/dL; IP [5]: 7.4 mg/dL; K [5]: 4.4 meq/L; LDH [5]: 222 IU/L; Na [5]: 141.4 meq/L; PL [5]: 152.6 mg/dL; RALB [5]: 3.1 g/dL; TBIL [5]: 0.004 mg/dL; TC [5]: 81.4 mg/dL; TG [5]: 113.6 mg/dL; TP [5]: 5.6 g/dL; gamma-GTP [5]: 1.2 IU/L; TERMINAL_BW [6]: 245.9 g; TERMINAL_BW [7]: 307.6 g; TERMINAL_BW [8]: 358.8 g; Bas [6]: 0%; Eos [6]: 1%; Fbg [6]: 311 mg/dL; Hb [6]: 13.6 g/dL; Ht [6]: 39.4%; Lym [6]: 75.6%; MCH [6]: 21.4 pg; MCHC [6]: 34.6%; MCV [6]: 61.9 fL; Mono [6]: 2.8%; PT [6]: 15.9 s; Plat [6]: 121 x10_4/uL; RBC [6]: 638 x10_4/ul; Ret [6]: 5.8%; APTT [7]: 24 s; Bas [7]: 0%; Eos [7]: 0.8%; Fbg [7]: 339.6 mg/dL; Ht [7]: 41%; Lym [7]: 80.4%; MCHC [7]: 34.6%; MCV [7]: 60.2 fL; Mono [7]: 2.2%; PT [7]: 15.8 s; Plat [7]: 116.9 x10_4/uL; RBC [7]: 682.4 x10_4/ul; Ret [7]: 4.7%; WBC [7]: 120.7 x10_2/uL; Bas [8]: 0%; Eos [8]: 1.2%; Fbg [8]: 317.5 mg/dL; Hb [8]: 14.8 g/dL; Ht [8]: 43%; Lym [8]: 78.5%; MCH [8]: 19.2 pg; MCHC [8]: 34.5%; MCV [8]: 55.8 fL; Mono [8]: 2.5%; Plat [8]: 98.8 x10_4/uL; RBC [8]: 771 x10_4/ul; Ret [8]: 2.8%; WBC [8]: 94.9 x10_2/uL; KIDNEY_L [6]: 1.1 g; KIDNEY_R [6]: 1.1 g; KIDNEY_TOTAL [6]: 2.1 g; KIDNEY_L [7]: 1.2 g; KIDNEY_R [7]: 1.2 g; KIDNEY_TOTAL [7]: 2.4 g; KIDNEY_L [8]: 1.3 g; KIDNEY_R [8]: 1.3 g; KIDNEY_TOTAL [8]: 2.5 g; ALP [6]: 1657.2 IU/L; ALT [6]: 43.6 IU/L; AST [6]: 73 IU/L; BUN [6]: 18 mg/dL; CRE [6]: 0.2 mg/dL; DBIL [6]: 0 mg/dL; GLC [6]: 183.4 mg/dL; IP [6]: 6.8 mg/dL; K [6]: 4.1 meq/L; LDH [6]: 167.2 IU/L; Na [6]: 139.8 meq/L; PL [6]: 150.8 mg/dL; RALB [6]: 3 g/dL; TBIL [6]: 0.004 mg/dL; TC [6]: 71.6 mg/dL; TG [6]: 128.2 mg/dL; TP [6]: 5.6 g/dL; gamma-GTP [6]: 2.2 IU/L; ALP [7]: 1385.4 IU/L; ALT [7]: 45 IU/L; AST [7]: 73.4 IU/L; CRE [7]: 0.2 mg/dL; DBIL [7]: 0 mg/dL; GLC [7]: 197.2 mg/dL; IP [7]: 7.2 mg/dL; K [7]: 3.9 meq/L; LDH [7]: 129.4 IU/L; Na [7]: 141.8 meq/L; PL [7]: 150 mg/dL; RALB [7]: 3.1 g/dL; TBIL [7]: 0.006 mg/dL; TC [7]: 75.4 mg/dL; TG [7]: 122.6 mg/dL; TP [7]: 5.7 g/dL; gamma-GTP [7]: 2.4 IU/L; ALP [8]: 1303 IU/L; ALT [8]: 38.8 IU/L; AST [8]: 67.5 IU/L; CRE [8]: 0.2 mg/dL; DBIL [8]: 0 mg/dL; GLC [8]: 196 mg/dL; IP [8]: 5.6 mg/dL; K [8]: 3.7 meq/L; LDH [8]: 181.8 IU/L; Na [8]: 142.5 meq/L; PL [8]: 149.8 mg/dL; RALB [8]: 3.3 g/dL; TBIL [8]: 0.005 mg/dL; TC [8]: 72.5 mg/dL; TG [8]: 129.5 mg/dL; TP [8]: 6.1 g/dL; gamma-GTP [8]: 2.8 IU/L; TERMINAL_BW [9]: 227 g; APTT [9]: 20.5 s; Bas [9]: 0%
